For series [1], the target named is Metabotropic glutamate receptor 2 (Rattus norvegicus, UniProt P31421). Description: Negative allosteric modulation of rat mGlu2R expressed in HEK293 cells co-expressing Galpha15 assessed as decrease in glutamate-induced calcium mobilization preincubated for 2.3 mins followed by glutamate addition and measured after 1.7 mins by Fluo-4-AM dye based fluorescence assay. The format is functional, cell-based.

Series [2] deals with Metabotropic glutamate receptor 2 (Rattus norvegicus) (UniProt P31421). Briefly: Negative allosteric modulation of rat mGlu2R expressed in HEK293 cells co-expressing Galpha15 assessed as decrease in glutamate-induced calcium mobilization at 30 uM preincubated for 2.3 mins followed by glutamate addition and measured after 1.7 mins by Fluo-4-AM dye based fluorescence assay relative to control. Format: functional, cell-based. (A change in cytosolic calcium serves as a functional read-out for many receptors and channels.)

Series [3] can be described thus: Brain to plasma partition coefficient, Kp of the compound in Sprague-Dawley rat at 0.2 mg/kg, iv administered as cassette dose by LC-MS/MS analysis. The format is ADME, organism-based. The settings on record: brain and plasma.
A short description of series [4]: Unbound brain to plasma ratio in Sprague-Dawley rat at 0.2 mg/kg, iv administered as cassette dose by LC-MS/MS analysis. The settings on record: brain and plasma, read-out: K(p,uu,brain). Format: ADME, organism-based.

Structures are written as SMILES.

Metabotropic glutamate receptor 2 (Rattus norvegicus), sequence (P31421 19-872 limits assumed): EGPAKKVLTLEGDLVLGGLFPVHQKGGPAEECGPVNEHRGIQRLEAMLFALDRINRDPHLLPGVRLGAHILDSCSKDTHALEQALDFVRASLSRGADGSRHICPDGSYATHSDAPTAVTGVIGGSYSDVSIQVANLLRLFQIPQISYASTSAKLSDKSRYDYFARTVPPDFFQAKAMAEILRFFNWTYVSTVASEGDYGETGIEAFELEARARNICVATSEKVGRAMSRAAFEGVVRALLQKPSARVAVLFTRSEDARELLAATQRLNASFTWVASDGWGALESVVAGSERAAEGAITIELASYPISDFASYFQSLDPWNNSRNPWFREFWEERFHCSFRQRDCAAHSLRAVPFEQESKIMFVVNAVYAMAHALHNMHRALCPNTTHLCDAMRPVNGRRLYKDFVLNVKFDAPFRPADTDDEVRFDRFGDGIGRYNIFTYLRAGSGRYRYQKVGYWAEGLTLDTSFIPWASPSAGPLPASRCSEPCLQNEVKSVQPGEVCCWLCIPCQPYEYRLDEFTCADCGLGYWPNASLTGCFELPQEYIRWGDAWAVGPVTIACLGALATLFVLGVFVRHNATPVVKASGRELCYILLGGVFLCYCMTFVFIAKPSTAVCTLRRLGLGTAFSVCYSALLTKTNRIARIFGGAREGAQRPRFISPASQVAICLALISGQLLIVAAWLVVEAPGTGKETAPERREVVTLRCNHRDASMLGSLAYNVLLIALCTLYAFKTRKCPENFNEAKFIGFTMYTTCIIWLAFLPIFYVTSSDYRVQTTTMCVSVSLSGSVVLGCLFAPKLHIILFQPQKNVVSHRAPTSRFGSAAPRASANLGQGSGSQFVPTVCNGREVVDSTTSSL
Metabotropic glutamate receptor 2, sequence (P31421 whole entry): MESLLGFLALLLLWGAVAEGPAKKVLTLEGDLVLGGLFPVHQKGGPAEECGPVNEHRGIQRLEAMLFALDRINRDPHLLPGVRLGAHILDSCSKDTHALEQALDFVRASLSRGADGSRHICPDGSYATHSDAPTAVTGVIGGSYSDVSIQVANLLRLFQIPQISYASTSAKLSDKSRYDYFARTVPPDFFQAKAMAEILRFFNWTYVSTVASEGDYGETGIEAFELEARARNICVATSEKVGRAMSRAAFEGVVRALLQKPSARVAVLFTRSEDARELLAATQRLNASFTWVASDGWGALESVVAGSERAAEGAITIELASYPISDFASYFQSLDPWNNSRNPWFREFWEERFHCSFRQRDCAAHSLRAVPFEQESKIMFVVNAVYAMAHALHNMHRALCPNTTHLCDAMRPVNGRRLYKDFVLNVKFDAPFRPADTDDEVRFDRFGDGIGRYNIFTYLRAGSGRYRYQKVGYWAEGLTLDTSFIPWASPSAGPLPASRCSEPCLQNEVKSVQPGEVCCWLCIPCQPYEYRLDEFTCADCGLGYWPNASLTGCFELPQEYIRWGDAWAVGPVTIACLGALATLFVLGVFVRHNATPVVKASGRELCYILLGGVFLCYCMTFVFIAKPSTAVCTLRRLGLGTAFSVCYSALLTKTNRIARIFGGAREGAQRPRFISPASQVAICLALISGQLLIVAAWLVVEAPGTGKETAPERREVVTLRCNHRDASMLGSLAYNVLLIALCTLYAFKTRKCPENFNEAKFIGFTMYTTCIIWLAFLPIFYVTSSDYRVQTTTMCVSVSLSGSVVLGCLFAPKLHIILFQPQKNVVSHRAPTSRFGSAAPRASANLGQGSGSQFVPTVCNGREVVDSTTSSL

On to `NC(=O)c1cc(-c2ccc(F)cc2)c2sc(CN3CCC(F)(F)CC3)cc2n1`, for which the IC50 (commonly the point on the concentration scale where inhibition reaches its midpoint) in series [1] is 1050 nM. For the same compound, the Emax – broadly, the maximal effect, on the per cent scale that the assay sets – in series [2] was found to be 2.2%.
For `COc1ccc(-c2cc(C(N)=O)nc3cc(COc4cnc(C)nc4)sc23)c(F)c1`, in that order: 427 nM and 2.7%.
Turning to `Cc1ncccc1OCc1cc2nc(C(N)=O)cc(-c3ccc(F)cc3)c2s1`, the IC50 in series [1] was determined as 759 nM. Moreover, in series [2], the Emax is 3.2%. Besides, the Kp (as a rule, the ratio of the level in a tissue or fluid to that in plasma or blood) in series [3] was above 2. For the same compound, in series [4], the Kp uu was below 0.4.
Regarding `Cc1ccc(OCc2cc3nc(C(N)=O)cc(-c4ccc(F)cc4)c3s2)c(C)n1`, the IC50 in series [1] turned out to be 741 nM. For the same compound, in series [2], the Emax came out at 3.3%. Besides, the Kp in series [3] is above 2. In addition, the Kp uu in series [4] is below 0.4.
For the compound `NC(=O)c1cc(-c2ccc(F)cc2)c2sc(CN3CCSCC3)cc2n1`, the IC50 in series [1] was determined as 3630 nM. Moreover, in series [2], the Emax was determined as 2.4%.
For `NC(=O)c1cc(-c2ccc(F)cc2)n2nc(CCc3ccncc3)cc2n1`, in that order: 1050 nM and 2.6%.
In the case of `NC(=O)c1cc(-c2ccc(F)cc2)c2sc(COc3ccc(F)nc3)cc2n1`, the IC50 in series [1] amounted to 891 nM. The Emax in series [2] was 13.2%. In series [3], the Kp is above 2. The Kp uu in series [4] is below 0.4.
As to `Cn1ccc(OCc2cc3nc(C(N)=O)cc(-c4ccc(F)cc4)c3s2)n1`, in series [1], the IC50 stood at 1510 nM. The Emax in series [2] worked out at 1.9%.
On to `NC(=O)c1cc(-c2ccc(F)cc2)c2sc(CN3CCOCC3)cc2n1`, for which the half-inhibitory concentration (IC50) in series [1] worked out at 3890 nM. Also, the maximal effect (Emax) in series [2] was determined as 2.9%.
For `COc1ccc(OCc2cc3nc(C(N)=O)cc(-c4ccc(F)cc4)c3s2)cn1`, in series [1], the IC50 amounted to 2000 nM. Also, in series [2], the Emax came out at 16.8%.
Turning to `NC(=O)c1cc(-c2ccc(F)cc2)c2sc(COc3ccc(Cl)nc3)cc2n1`, the IC50 in series [1] is 871 nM. Moreover, the maximal response (Emax) in series [2] stood at 29.3%. Also, the Kp in series [3] is above 2. Also, the Kp uu in series [4] is below 0.4.
`COc1ccc(-c2cc(C(N)=O)nc3cc(COc4ccc(F)nc4)sc23)cc1`: the half-inhibitory concentration (IC50) in series [1] is 2570 nM. The Emax in series [2] was 7.2%.
For `NC(=O)c1cc(-c2ccc(F)cc2)c2sc(CN3CCC3)cc2n1`, the IC50 in series [1] was above 10000 nM.
Turning to `[2H]C([2H])([2H])Oc1ccc(-c2cc(C(N)=O)nc3cc(COc4cnc(C)nc4)sc23)cc1`, the concentration for half-maximal inhibition (IC50) in series [1] worked out at 447 nM.
Consider `NC(=O)c1cc(-c2ccc(F)cc2)c2sc(COc3ccnc(C(F)(F)F)c3)cc2n1`, for which, in series [1], the IC50 was determined as 1740 nM. The Emax in series [2] worked out at 2.3%.
Regarding `Cc1ncc(OCc2cc3nc(C(N)=O)cc(-c4ccc(F)cc4)c3s2)cn1`, the IC50 in series [1] turned out to be 589 nM. Moreover, the Emax in series [2] stood at 6.9%.
Consider `NC(=O)c1cc(-c2ccc(F)cc2)n2nc(COc3ccc(C(F)(F)F)nc3)cc2n1`, for which the IC50 in series [1] is above 10000 nM.
Regarding `NC(=O)c1cc(-c2ccc(F)cc2)c2sc(COc3cncnc3)cc2n1`, in series [1], the IC50 is 676 nM. Further, the Emax in series [2] stood at 26.2%.
`COc1ccc(-c2cc(C(N)=O)nc3cc(CN4CCOCC4)sc23)cc1`: in series [1], the IC50 was found to be 2510 nM. Also, the Emax in series [2] turned out to be 2.6%.
As for `NC(=O)c1cc(-c2ccc(F)cc2)c2sc(CN3CCCCC3)cc2n1`, the IC50 in series [1] came out at 1740 nM. Moreover, the Emax in series [2] came out at 2.2%.
With `NC(=O)c1cc(-c2ccc(F)cc2)c2sc(CN3CCCC3)cc2n1`, the concentration for half-maximal inhibition (IC50) in series [1] was found to be 6610 nM. Also, in series [2], the Emax was 4.1%.
Take `NC(=O)c1cc(-c2ccc(F)cc2)n2nc(CCc3cccnc3)cc2n1`: the IC50 in series [1] is 1740 nM. Besides, in series [2], the Emax was found to be 2.9%.
For `NC(=O)c1cc(-c2ccc(F)cc2)c2sc(COc3ccc(F)cc3)cc2n1`, the IC50 in series [1] is above 10000 nM.
Regarding `CN(Cc1cc2nc(C(N)=O)cc(-c3ccc(F)cc3)c2s1)C1COC1`, the IC50 in series [1] is 1410 nM. Besides, the Emax in series [2] was 2.4%.
For the compound `NC(=O)c1cc(-c2ccc(F)cc2)c2sc(COc3ccc(C(F)(F)F)nc3)cc2n1`, in series [1], the half-maximal inhibitory concentration (IC50) was above 10000 nM.
Take `Cc1cc(OCc2cc3nc(C(N)=O)cc(-c4ccc(F)cc4)n3n2)ccn1`: the IC50 in series [1] was above 10000 nM.
In the case of `COc1ccc(-c2cc(C(N)=O)nc3cc(CN4CCOCC4)sc23)c(F)c1`, the half-inhibitory concentration (IC50) in series [1] turned out to be 1410 nM. Besides, the Emax in series [2] was found to be 2.3%.
